Assay type in all cases: in vivo
One assay relates to Erysiphe cichoracearum. The assay is described as follows: Fungicidal activity: powdery mildew of cucumber (ERYSCI). The conditions noted are these: Golovinomyces cichoracearum, 24 h, 1 Day Protectant, read-out: Disease Control ERYSCI 1DP. The method, then: Technical grades of materials were dissolved in acetone, which were then mixed with nine volumes of water containing 110 ppm Triton X-100. The fungicide solutions were applied onto wheat seedlings using an automated booth sprayer to run-off. All sprayed plants were allowed to air dry prior to further handling. Wheat plants (variety Yuma) were grown from seed in a greenhouse in 50% mineral soil/50% soil-less Metro mix until the first leaf was fully emerged, with 7-10 seedlings per pot. These plants were inoculated with an aqueous spore suspension of Septoria tritici either prior to or after fungicide treatments. After inoculation the plants were kept in 100% relative humidity (one day in a dark dew chamber followed by two to three days in a lighted dew chamber at 20° C.) to permit spores to germinate and infect the leaf. The plants were then transferred to a greenhouse set at 20° C. for disease to develop. When disease symptoms were fully expressed on the 1st leaves of untreated plants, infection levels were assessed on a scale of 0 to 100 percent disease severity. Percent disease control was calculated using the ratio of disease severity on treated plants relative to untreated plants. Evaluation of Fungicidal Activity: Powdery Mildew of Cucumber (Erysiphe cichoracearum; Bayer Code […]) Cucumber seedlings (variety Bush Pickle) were grown in soil-less Metro mix, with one plant per pot, and used in the test when 12 to 14 days old. Plants were inoculated with a spore suspension 24 hr following fungicide treatments. After inoculation the plants remained in the greenhouse set at 20° C. until disease was fully expressed. Fungicide formulation, application and disease assessment on the sprayed leaves followed the procedures as described in the Example A.

A further assay concerns Uncinula necator. The assay is described as follows: Fungicidal activity: grape powdery mildew (UNCINE). As to conditions: Erysiphe necator, 24 h, 1 Day Protectant, read-out: Disease Control UNCINE 1 DP. The method, then: Technical grades of materials were dissolved in acetone, which were then mixed with nine volumes of water containing 110 ppm Triton X-100. The fungicide solutions were applied onto wheat seedlings using an automated booth sprayer to run-off. All sprayed plants were allowed to air dry prior to further handling. Wheat plants (variety Yuma) were grown from seed in a greenhouse in 50% mineral soil/50% soil-less Metro mix until the first leaf was fully emerged, with 7-10 seedlings per pot. These plants were inoculated with an aqueous spore suspension of Septoria tritici either prior to or after fungicide treatments. After inoculation the plants were kept in 100% relative humidity (one day in a dark dew chamber followed by two to three days in a lighted dew chamber at 20° C.) to permit spores to germinate and infect the leaf. The plants were then transferred to a greenhouse set at 20° C. for disease to develop. When disease symptoms were fully expressed on the 1st leaves of untreated plants, infection levels were assessed on a scale of 0 to 100 percent disease severity. Percent disease control was calculated using the ratio of disease severity on treated plants relative to untreated plants. Evaluation of Fungicidal Activity: Grape Powdery Mildew (Uncinula necator; Bayer Code […]) Grape seedlings (variety Carignane) were grown in soil-less Metro mix, with one plant per pot, and used in the test when approximately one month old. Plants were inoculated 24 hr after fungicide treatment by shaking spores from infected leaves over test plants. Plants were maintained in a greenhouse set at 20° C. until disease was fully developed. Fungicide formulation, application and disease assessment on the sprayed leaves followed the procedures as described in the Example A.

Assay [1] deals with Blumeria graminis f.sp. hordei; synonym: Erysiphe graminis f.sp. hordei. In words: Fungicidal activity: barley powdery mildew (ERYSGH). As to conditions: 24 h, 1 Day Protectant, read-out: Disease Control ERYSGH 1DP. On the procedure: Technical grades of materials were dissolved in acetone, which were then mixed with nine volumes of water containing 110 ppm Triton X-100. The fungicide solutions were applied onto wheat seedlings using an automated booth sprayer to run-off. All sprayed plants were allowed to air dry prior to further handling. Wheat plants (variety Yuma) were grown from seed in a greenhouse in 50% mineral soil/50% soil-less Metro mix until the first leaf was fully emerged, with 7-10 seedlings per pot. These plants were inoculated with an aqueous spore suspension of Septoria tritici either prior to or after fungicide treatments. After inoculation the plants were kept in 100% relative humidity (one day in a dark dew chamber followed by two to three days in a lighted dew chamber at 20° C.) to permit spores to germinate and infect the leaf. The plants were then transferred to a greenhouse set at 20° C. for disease to develop. When disease symptoms were fully expressed on the 1st leaves of untreated plants, infection levels were assessed on a scale of 0 to 100 percent disease severity. Percent disease control was calculated using the ratio of disease severity on treated plants relative to untreated plants. Evaluation of Fungicidal Activity: Barley Powdery Mildew (Blumeria graminis f.sp. hordei; Synonym: Erysiphe graminis f.sp. hordei; Bayer Code […]) Barley seedlings (variety Harrington) were propagated in soil-less Metro mix, with each pot having 8 to 12 plants, and used in the test when first leaf was fully emerged. Test plants were inoculated by dusting with infected stock plants 24 hr after fungicide treatments. After inoculation the plants were kept in a greenhouse set at 20° C. for disease to develop. Fungicide formulation, application and disease assessment on the sprayed leaves followed the procedures as described in the Example A.

The next assay deals with Phakopsora pachyrhizi. In words: Fungicidal activity: Asian soybean rust (PHAKPA). The conditions noted are these: 25 ppm. On the procedure: Evaluation of Fungicidal Activity: Asian Soybean Rust (Phakopsora pachyrhizi; Bayer Code […]) Technical grades of materials were dissolved in acetone, which were then mixed with nine volumes of water containing 0.011% Tween 20. The fungicide solutions were applied onto soybean seedlings using an automated booth sprayer to run-off. All sprayed plants were allowed to air dry prior to further handling. Soybean plants (variety Williams 82) were grown in soil-less Metro mix, with one plant per pot. Two weeks old seedlings were used for testing. […] Plants were incubated for 24 h in a dark dew room at 22° C. and 100% RH then transferred to a growth room at 23° C. for disease to develop. Disease severity was assessed on the sprayed leaves.

For assay [2], the system named is Puccinia triticina; synonym: Puccinia recondita f. sp. tritici. The assay is described as follows: Fungicide mobility (dropline mobility test): wheat brown rust (PUCCRT). The conditions noted are these: 1 ug/leaf. Summed up: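 A 2 μl drop of formulated compound (EC blank, 110 ppm Triton X-100 water) was applied to a line 5 cm from the tip of primary leaves of "Yuma" wheat seedlings, 6 replicates. Inoculation with PUCCRT was done 1 day after or 3 days before application. Once disease was fully expressed on controls, the acropetal disease-free zone was measured as percent of line-to-tip distance.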

Read-outs that look alike come from different tables or passages of the source.

Regarding `COc1ccnc(C(=O)N[C@H]2COC[C@H](Oc3ccccc3)[C@@H](OCC(C)C)[C@H](C)OC2=O)c1OCOC(C)=O` [Compound 86], the pest or weed control at 100 ppm in the assay with Erysiphe cichoracearum was in the range of 0 to 80%; in the assay with Uncinula necator it was 80 to 100%; in assay [1] it was 0 to 80%. The “Disease Control PHAKPA 1DP” value in the assay with Phakopsora pachyrhizi (1 Day Protectant) was “A (80-100)”. Further, the “Disease Control PHAKPA 3DC” value with Phakopsora pachyrhizi (3 Day Curative) is recorded as “A (80-100)”. Further, the pest or weed control at 1 µg/leaf lay within 80 to 100% in assay [2] (24 h, 1 Day Protectant Mobility, read-out: Dropline Mobility Test PUCCRT 1DPM) and 0 to 80% in assay [2] (72 h, 3 Day Curative Mobility, read-out: Dropline Mobility Test PUCCRT 3DCM).

The record behind these values is US9144239B2, “Macrocyclic picolinamides as fungicides” (DOW AGROSCIENCES LLC, priority 2012, dated 2015).
